Measured values taken from ChEMBL document CHEMBL4673233, “Discovery of novel (6S/12aS)-heptachpyridone capable of inhibiting thrombosis in vivo” (Bioorg Med Chem Lett, 2020).
Active and inactive are the calls of the source. No cut-off for these calls is given here.

Tests used:
[1] = Drug metabolism in rat plasma assessed as formation of 6s/12as-heptachpyridone incubated for 1 hr by HPLC-FT-ICR-MS analysis; assay type: ADME, cell-free
[2] = Drug metabolism in rat plasma assessed as formation of 6s/12as-bisdimethoxyethylheptachpyridone incubated for 1 hr by HPLC-FT-ICR-MS analysis; assay type: ADME, cell-free
Rattus norvegicus [3] = test: Antithrombotic activity in rat model of thread-induced arterial thrombosis assessed as reduction artery thrombus at 1 umol/kg, po; assay type: functional, organism-based; details: dose 1.0 µmol/kg
[4] = Toxicity in inferior vena cava ligation-induced venous thrombosis rat model assessed as international normalized ratio measure of prothrombin time and exogenous coagulation pathway at 1 umol/kg; details: in vivo, dose 1 µmol/kg
Rattus norvegicus [5] = test: Antithrombotic activity in rat model of inferior vena cava ligation-induced venous thrombosis assessed as reduction in venous thrombus weight at 1 umol/kg, po; assay type: functional, organism-based; details: dose 1.0 µmol/kg
[6] = Toxicity in inferior vena cava ligation-induced venous thrombosis rat model assessed as clotting time at 1 umol/kg; details: in vivo, dose 1 µmol/kg
[7] = Toxicity in inferior vena cava ligation-induced venous thrombosis rat model assessed as bleeding time at 1 umol/kg; details: in vivo, dose 1 µmol/kg
Rattus norvegicus [8] = test: Antithrombotic activity in rat model of thread-induced arterial thrombosis assessed as reduction artery thrombus at 167 umol/kg, po; assay type: functional, organism-based; details: dose 167.0 µmol/kg
Rattus norvegicus [9] = test: Antithrombotic activity in rat model of inferior vena cava ligation-induced venous thrombosis assessed as reduction in venous thrombus weight at 4.87 umol/kg, po; assay type: functional, organism-based; details: dose 4.87 µmol/kg
[10] = Toxicity in inferior vena cava ligation-induced venous thrombosis rat model assessed as bleeding time at 4.87 umol/kg; details: in vivo, dose 4.87 µmol/kg
[11] = Toxicity in inferior vena cava ligation-induced venous thrombosis rat model assessed as clotting time at 4.87 umol/kg; details: in vivo, dose 4.87 µmol/kg
[12] = Toxicity in inferior vena cava ligation-induced venous thrombosis rat model assessed as international normalized ratio measure of prothrombin time and exogenous coagulation pathway at 4.87 umol/kg; details: in vivo, dose 1 µmol/kg

COC(C[C@H]1c2[nH]c3ccccc3c2C[C@H]2C(=O)N3[C@@H](Cc4c([nH]c5ccccc45)[C@@H]3CC(OC)OC)C(=O)N21)OC
Drug metabolism [1]: Metabolite_Detected

COC(C[C@@H]1N[C@H](C(=O)O)Cc2c1[nH]c1ccccc21)OC
Drug metabolism [2]: Metabolite_Detected

O=CC[C@H]1c2[nH]c3ccccc3c2C[C@H]2C(=O)N3[C@@H](Cc4c([nH]c5ccccc45)[C@@H]3CC=O)C(=O)N21
Activity (Rattus norvegicus [3]): Active | Activity [4]: Non-Toxic | Activity (Rattus norvegicus [5]): Active | Activity [6]: Non-Toxic | Activity [7]: Non-Toxic

CC(=O)Oc1ccccc1C(=O)O
Activity (Rattus norvegicus [8]): Active

CC(=O)CC(c1ccccc1)c1c(O)c2ccccc2oc1=O (configuration not stated) [WARFARIN]
Activity (Rattus norvegicus [9]): Active | Activity [10]: Toxic | Activity [11]: Toxic | Activity [12]: Toxic
